Measured values reported in patent US20120101277A1, “CRYSTALLINE FORM OF POSACONAZOLE” (SANDOZ AG, priority 2009, published 2012).

Tests used:
[1] = under the conditions investigated in WO 99/18097; cited from earlier work
[2] = Moisture sorption isotherm (SPS-11 moisture sorption analyzer); format: physicochemical
Protocol: The moisture sorption isotherm was recorded with a SPS-11 moisture sorption analyzer (MD Mess-technik, Ulm, D). The measurement cycle was started at 0% relative humidity (RH), increased in 10% steps up to 90% RH and in a 5% step up to 95% RH. The equilibrium condition for each step was set to a constant mass±0.003% over 49 min. The temperature was 25±0.1° C.
At ambient conditions form II-S contains approximately 1 mol water (monohydrate). […] The maximum water content peaks at 5.2% at 90% relative humidity, which corresponds to a water mol ratio of 2.0 (FIG. 4).

water content at ambient conditions ([2]; ambient conditions, per mole posaconazole (monohydrate))	water mol ratio at maximum water content ([2]; at 90% relative humidity, 25 °C, corresponds to the 5.2% water content)	step of water uptake/loss ([2]; between 0 and 10% relative humidity)	maximum water content ([2]; moisture sorption isotherm, at 90% relative humidity, 25 °C) [%]	SMILES	stability of the crystalline form [1]
–	–	–	–	CC[C@@H]([C@H](C)O)n1ncn(-c2ccc(N3CCN(c4ccc(OC[C@@H]5CO[C@@](Cn6cncn6)(c6ccc(F)cc6F)C5)cc4)CC3)cc2)c1=O [form II, posaconazole]	unstable
approximately 1 mol water	2.0	over 0.5 mol water	5.2	CC[C@@H]([C@H](C)O)n1ncn(-c2ccc(N3CCN(c4ccc(OC[C@@H]5CO[C@@](Cn6cncn6)(c6ccc(F)cc6F)C5)cc4)CC3)cc2)c1=O [form II-S, 2,5-anhydro-1,3,4-trideoxy-2-C-(2,4-difluorophenyl)-4-[[4-[4-[4-[1-[(1S,2S)-1-ethyl-2-hydroxypropyl]-1,5-dihydro-5-oxo-4H-1,2,4-triazol-4-yl]phenyl]-1-piperazinyl]phenoxy]methyl]-1-(1H-1,2,4-triazol-1-yl)-D-threo-pentitol]	–
